ChEMBL document CHEMBL5257097, “An Isomer of Galidesivir That Potently Inhibits Influenza Viruses and Members of the Bunyavirales Order” (ACS Med Chem Lett, 2023)

Columns and labels:
[1] = (§1) Selectivity index, ratio of CC50 for cytotoxicity against African green monkey Vero 76 cells infected with Rift valley fever virus assessed as reduction in cell viability by visual analysis to EC50 for antiviral activity against Rift valley fever virus infected in African green monkey Vero 76 cells assessed as reduction in virus-induced cytopathic effect by visual analysis; format: toxicity, cell-based; conditions: read-out: Ratio CC50/EC50
[2] = as §1, with “MERS-CoV” for “Rift valley fever virus”, “neutral red dye based” for “visual”; format: toxicity; conditions: read-out: Ratio CC50/EC50
[3] = tested on: Middle East respiratory syndrome-related coronavirus; experiment: Antiviral activity against MERS-CoV infected in vervet monkey MA-104 cells assessed as reduction in virus-induced cytopathic effect measured after 15 to 30 mins by visual analysis; format: functional, organism-based; conditions: MA104
[4] = Cytotoxicity against African green monkey Vero cells infected with DENV-2 assessed as reduction in cell viability by visual assay; format: toxicity, cell-based; conditions: chlorocebus sabaeus
[5] = Selectivity index, ratio of CC50 for cytotoxicity against African green monkey Vero 76 cells infected with Zika virus assessed as reduction in cell viability by neutral red dye based analysis to EC50 for antiviral activity against Zika virus infected in African green monkey Vero 76 cells assessed as reduction in virus-induced cytopathic effect by neutral red based spectrophotometric analysis; format: toxicity; conditions: read-out: Ratio CC50/EC50
[6] = Selectivity index, ratio of CC50 for cytotoxicity against African green monkey Vero 76 cells infected with Rift valley fever virus assessed as reduction in cell viability by neutral red dye based analysis to EC50 for antiviral activity against Rift valley fever virus infected in African green monkey Vero 76 cells assessed as reduction in virus-induced cytopathic effect by neutral red dye based analysis; format: toxicity; conditions: read-out: Ratio CC50/EC50
[7] = (§2) Selectivity index, ratio of CC50 for cytotoxicity against African green monkey Vero cells infected with DENV-2 assessed as reduction in cell viability by visual analysis to EC50 for antiviral activity against DENV-2 infected in human Huh-7 cells assessed as reduction in virus-induced cytopathic effect by visual analysis; format: toxicity, cell-based; conditions: read-out: Ratio CC50/EC50
[8] = tested on: dengue virus type 2; experiment: Antiviral activity against DENV-2 infected in African green monkey Vero cells assessed as reduction in virus-induced cytopathic effect measured after 15 to 30 mins by neutral red based analysis; format: functional, organism-based
[9] = Cytotoxicity against vervet monkey MA-104 cells infected with MERS-CoV assessed as reduction in cell viability by visual assay; format: toxicity, cell-based; conditions: cercopithecus pygerythrus
[10] = as §2, with “neutral red” for “visual”; format: toxicity, cell-based; conditions: read-out: Ratio CC50/EC50
[11] = Cytotoxicity against African green monkey Vero 76 cells infected with Rift valley fever virus assessed as reduction in cell viability by neutral red dye based analysis; format: toxicity; conditions: chlorocebus sabaeus
[12] = tested on: Rift Valley fever virus; experiment: Antiviral activity against Rift valley fever virus infected in African green monkey Vero 76 cells assessed as reduction in virus-induced cytopathic effect measured after 15 to 30 mins by visual analysis; format: functional, organism-based
[13] = Selectivity index, ratio of CC50 for cytotoxicity against African green monkey Vero 76 infected with Zika virus assessed as reduction in cell viability by visual analysis to EC50 for antiviral activity against Zika virus infected in African green monkey Vero 76 cells assessed as reduction in virus-induced cytopathic effect by visual analysis; format: toxicity, cell-based; conditions: Vero 76 cells infected with Zika virus, read-out: Ratio CC50/EC50
[14] = tested on: Yellow fever virus; experiment: Antiviral activity against Yellow fever virus infected in human Huh-7 cells assessed as reduction in virus-induced cytopathic effect measured after 15 to 30 mins by visual analysis; format: functional, organism-based; conditions: huh-7
[15] = Selectivity index, ratio of CC50 for cytotoxicity against African green monkey Vero 76 cells infected with MERS-CoV assessed as reduction in cell viability by visual analysis to EC50 for antiviral activity against MERS-CoV infected in African green monkey Vero 76 cells assessed as reduction in virus-induced cytopathic effect by visual analysis; format: toxicity, cell-based; conditions: read-out: Ratio CC50/EC50
[16] = Cytotoxicity against African green monkey Vero 76 cells infected with Zika virus assessed as reduction in cell viability by visual analysis; format: toxicity, cell-based; conditions: chlorocebus sabaeus
[17] = Cytotoxicity against dog MDCK cells infected with Influenza A virus H1N1 assessed as reduction in cell viability by neutral red dye based assay; format: toxicity, Canis lupus familiaris
[18] = tested on: Zika virus; experiment: Antiviral activity against Zika virus infected in African green monkey Vero 76 cells assessed as reduction in virus-induced cytopathic effect measured after 15 to 30 mins by visual analysis; format: functional, organism-based
[19] = Cytotoxicity against African green monkey Vero 76 cells infected with Zika virus assessed as reduction in cell viability by neutral red dye based assay; format: toxicity; conditions: chlorocebus sabaeus
[20] = tested on: dengue virus type 2; experiment: Antiviral activity against DENV-2 infected in African green monkey Vero cells assessed as reduction in virus-induced cytopathic effect measured after 15 to 30 mins by visual analysis; format: functional, organism-based
[21] = Cytotoxicity against African green monkey Vero cells infected with DENV-2 assessed as reduction in cell viability by neutral red dye based assay; format: toxicity; conditions: chlorocebus sabaeus
[22] = Cytotoxicity against vervet monkey MA-104 cells infected with MERS-CoV assessed as reduction in cell viability by neutral red dye based assay; format: toxicity; conditions: cercopithecus pygerythrus
[23] = tested on: Middle East respiratory syndrome-related coronavirus; experiment: Antiviral activity against MERS-CoV infected in vervet monkey MA-104 cells assessed as reduction in virus-induced cytopathic effect measured after 15 to 30 mins by neutral red dye based assay; format: functional, organism-based; conditions: MA104
[24] = tested on: Influenza A virus; experiment: Antiviral activity against Influenza A virus H1N1 infected in dog MDCK cells assessed as reduction in virus-induced cytopathic effect measured after 15 to 30 mins by neutral red based analysis; format: functional, organism-based
[25] = tested on: Zika virus; experiment: Antiviral activity against Zika virus infected in African green monkey Vero 76 cells assessed as reduction in virus-induced cytopathic effect measured after 15 to 30 mins by neutral red based spectrophotometric analysis; format: functional, organism-based
[26] = Cytotoxicity against dog MDCK cells infected with Influenza A virus H1N1 assessed as reduction in cell viability by visual analysis; format: toxicity, cell-based, Canis lupus familiaris
[27] = tested on: Rift Valley fever virus; experiment: Antiviral activity against Rift valley fever virus infected in African green monkey Vero 76 cells assessed as reduction in virus-induced cytopathic effect measured after 15 to 30 mins by neutral red dye based analysis; format: functional, organism-based
[28] = Cytotoxicity against African green monkey Vero 76 cells infected with Rift valley fever virus assessed as reduction in cell viability by visual analysis; format: toxicity, cell-based; conditions: chlorocebus sabaeus
[29] = tested on: Influenza A virus; experiment: Antiviral activity against Influenza A virus H1N1 infected in dog MDCK cells assessed as reduction in virus-induced cytopathic effect measured after 15 to 30 mins by visual analysis; format: functional, organism-based
[30] = tested on: dengue virus type 2; experiment: Antiviral activity against DENV-2 infected in human Huh-7 cells assessed as reduction in virus-induced cytopathic effect measured after 15 to 30 mins by neutral red based analysis; format: functional, organism-based
[31] = tested on: Huh-7; experiment: Cytotoxicity against human Huh-7 cells infected with Yellow fever virus assessed as reduction in cell viability by visual assay; format: functional
[32] = tested on: Huh-7; experiment: Cytotoxicity against human Huh-7 cells infected with DENV-2 assessed as reduction in cell viability by visual analysis; format: functional
[33] = Cytotoxicity against African green monkey Vero 76 cells infected with MERS-CoV assessed as reduction in cell viability by neutral red dye based analysis; format: toxicity; conditions: chlorocebus sabaeus
[34] = tested on: Yellow fever virus; experiment: Antiviral activity against Yellow fever virus infected in human Huh-7 cells assessed as reduction in virus-induced cytopathic effect measured after 15 to 30 mins by neutral red based analysis; format: functional, organism-based
[35] = tested on: Middle East respiratory syndrome-related coronavirus; experiment: Antiviral activity against MERS-CoV infected in African green monkey Vero 76 cells assessed as reduction in virus-induced cytopathic effect measured after 15 to 30 mins by neutral red dye based analysis; format: functional, organism-based
[36] = Selectivity index, ratio of CC50 for cytotoxicity against dog MDCK cells infected with Influenza A virus H1N1 assessed as reduction in cell viability by neutral red dye based analysis to EC50 for antiviral activity against Influenza A virus H1N1 infected in dog MDCK cells assessed as reduction in virus-induced cytopathic effect by neutral red dye based analysis; format: toxicity; conditions: read-out: Ratio CC50/EC50
[37] = Selectivity index, ratio of CC50 for cytotoxicity against human Huh-7 cells infected with Yellow fever virus assessed as reduction in cell viability by neutral red dye based assay to EC50 for antiviral activity against Yellow fever virus infected in human Huh-7 cells assessed as reduction in virus-induced cytopathic effect by neutral red based analysis; format: toxicity; conditions: read-out: Ratio CC50/EC50
[38] = tested on: Influenza A virus; experiment: Antiviral activity against Influenza A virus H1N1 infected in dog MDCK cells; format: functional, organism-based
[39] = Cytotoxicity against dog MDCK cells infected with Influenza A virus H3N2; format: toxicity, cell-based, Canis lupus familiaris
[40] = tested on: Influenza B virus; experiment: Antiviral activity against Influenza B virus infected in dog MDCK cells
[41] = Cytotoxicity against dog MDCK cells infected with Influenza B virus; format: toxicity, cell-based, Canis lupus familiaris
[42] = tested on: Influenza A virus; experiment: Antiviral activity against Influenza A virus H3N2 infected in dog MDCK cells; format: functional, organism-based
[43] = tested on: Influenza A virus; experiment: Antiviral activity against Influenza A virus H7N9 infected in dog MDCK cells; format: functional, organism-based
[44] = Cytotoxicity against dog MDCK cells infected with Influenza A virus H1N1; format: toxicity, cell-based, Canis lupus familiaris

Nc1ncnc2c([C@@H]3N[C@H](CO)[C@@H](O)[C@H]3O)n[nH]c12
selectivity ratio [1]: 8.3
selectivity ratio [2]: 4.5
EC50 [3]: 8.6 µM
CC50 [4]: > 100 µM
selectivity ratio [5]: 1.1
selectivity ratio [6]: 7.6
selectivity ratio [7]: 3.1
EC50 [8]: 2.8 µM
CC50 [9]: 42 µM
selectivity ratio [10]: 3.5
CC50 [11]: > 100 µM
EC50 [12]: 4.2 µM
selectivity ratio [13]: 3.1
EC50 [14]: Not Active
selectivity ratio [15]: 4.9
CC50 [16]: 100 µM
CC50 [17]: > 100 µM
EC50 [18]: 32 µM
CC50 [19]: 13 µM
EC50 [20]: 3.2 µM
CC50 [21]: 2.8 µM
CC50 [22]: 45 µM
EC50 [23]: 9.9 µM
EC50 [24]: > 100 µM
EC50 [25]: 12 µM
CC50 [26]: > 100 µM
EC50 [27]: 4.2 µM
CC50 [28]: 8.3 µM
EC50 [29]: > 100 µM

CC(C)OC(=O)[C@H](C)N[P@](=O)(OC[C@H]1N[C@@H](c2c[nH]c3c(N)ncnc23)[C@H](O)[C@@H]1O)Oc1ccccc1
CC50 [11]: > 100 µM
EC50 [30]: > 100 µM
CC50 [31]: > 100 µM
CC50 [32]: > 100 µM
CC50 [17]: > 100 µM
CC50 [33]: > 100 µM
EC50 [34]: > 100 µM
EC50 [35]: > 100 µM
EC50 [24]: > 100 µM
EC50 [27]: > 100 µM

CC(C)OC(=O)[C@H](C)N[P@](=O)(OC[C@H]1N[C@@H](c2ccc3c(N)ncnn23)[C@H](O)[C@@H]1O)Oc1ccccc1
selectivity ratio [2]: 5.2
selectivity ratio [6]: > 32
selectivity ratio [36]: > 6.8
CC50 [11]: > 32 µM
EC50 [30]: 1.1 µM
CC50 [31]: 9.9 µM
CC50 [32]: 9.9 µM
selectivity ratio [37]: 9
CC50 [17]: > 32 µM
CC50 [33]: 68 µM
EC50 [34]: 3.6 µM
EC50 [35]: 13 µM
EC50 [24]: 4.7 µM
EC50 [27]: 0.99 µM

NC(=O)c1ncn([C@@H]2O[C@H](CO)[C@@H](O)[C@H]2O)n1 [RIBAVIRIN]
EC50 [38]: 1.9 µM
CC50 [39]: > 1000 µM
EC50 [40]: 1.9 µM
CC50 [41]: > 1000 µM
EC50 [42]: 1.9 µM
EC50 [43]: 10 µM
CC50 [44]: > 1000 µM
